In article PMC10017155 (Aging and Disease, 2023):

Experiments:
H6R-Aβ16 = conditions: ref [9]; cited from earlier work
Description: The dimeric form has a well-resolved characteristic signal of the V12 methyl group at 0.2 ppm, which allows for a quantitative assessment of the dimeric state. […] Thus, the ...

isoD7-Aβ16 = test: NMR titration, isoD7-Aβ16 with HAEE and Zn2+; type: binding; conditions: addition of Zn2+ without HAEE; disappearance of NMR signal (Supplementary Fig. 3); also ref [9]
Experimental: Peptides Aβ16, H6R-Aβ16 and isoD7-Aβ16 at the concentration of 0.2 - 8mM were dissolved in 10-20 mM bis-Tris-d19 (2,2-Bis(hydroxymethyl)-2,2′,2"-nitrilotrie-thanol-d19 with 98% ^2D enrichment) buffer solution (pH 6.8). Sodium salt of 3-(trimethylsilyl) propionic-2,2,3,3-d4 acid (DSS) at a concentration of 10-20 μM was added as the standard. NMR spectra were measured at 278 K in 90% H2O/10% D2O with Bruker AVANCE 600 MHz spectrometer equipped with triple resonance (^1H, ^13C and ^15N) pulsed field z gradient probe. 1D NMR spectra were processed and analyzed using the Mnova software (Mestrelab Research, Spain). In order to monitor peptide-peptide interactions NMR titration experiments were carried out. […] 1D spectra were recorded for each titration point.

[1] = compared with normal Aβ; ref [9]; cited from earlier work
Description: We hypothesized that the contribution of isoD7-Aβ to the development of AD is based on the formation of zinc-bound complexes that promote pathological aggregation of Aβ (Fig. 1A).

transgenic mice = conditions: in contrast to normal Aβ; ref [23], [24]; cited from earlier work
Description: The development of AD comprises a cascade of pathogenic processes in brain tissue. Some of the major elements of this cascade are the aggregation of beta-amyloid (Aβ) with the formation of neurotoxic oligomers, hyperphosphorylation of tau, and neuroinflammation. […] In the sporadic form of AD, accounting for 95% of disease cases, the molecular triggers for the pathological cascade remain unknown. […] We hypothesized that the contribution of isoD7-Aβ to the development of AD is based on the formation of zinc-bound complexes that promote pathological aggregation of Aβ (Fig. 1A). […] Interaction of HAEE with beta-amyloid. (A) A model for the contribution of isoD7-Aβ to AD pathology, and the possible ways of preventing its deleterious effects. Aβ spontaneously converts into isoD7-Aβ, which is accumulated over age, likely due to reduced Aβ clearance. Isomerized Aβ promotes AD pathology, potentially via formation of Zn-bound complexes serving as the seeds for a generation of neurotoxic oligomers. Treatment with anti-isoAβ antibodies is a promising therapeutic strategy already showing effectiveness in AD model mice ^9.

Substance | State of H6R-Aβ16 in the presence of Zn2+ (H6R-Aβ16) | Effect of Zn2+ on isoD7-Aβ16 (oligomerization; NMR signal) (isoD7-Aβ16) | Zinc-dependent aggregation [1] | Amyloidosis in transgenic mice (transgenic mice)
Ac-DAEFRRDSGYEVHHQK-NH2 [H6R-Aβ16, Aβ1-16 variant with the English (H6R) mutation] | mixture of monomeric and dimeric forms |  |  | 
Ac-DAEFRH[isoD]SGYEVHHQK-NH2 [isoD7-Aβ16, reference compound] |  | almost complete oligomerization and precipitation | increased capacity | stimulate amyloidosis
